The source of these data is ChEMBL document CHEMBL1201862, “PubChem BioAssay data set” (2004).

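Tested at 5 concentrations; 48 h exposure; 96-well plates; endpoints linearly interpolated, else capped at highest concentration. GI50: concentration for 50% inhibition of growth.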 Activity calls are given as the source filed them. No stated cut-off is given here; in the data, active = GI50 up to about 1.1 µM and inactive = higher.

Among the test systems are MCF7; HCC 2998; SF-268; MDA-N; ACHN; SK-MEL-2; Hs-578T; K562; NCI/ADR-RES; HL-60; T47D; MOLT-4; HOP-92; COLO 205; LOX IMVI; OVCAR-5; BT-549; SF-295; RXF 393; KM-20L2.
What all share (assay): DTP human tumour cell line panel, 48 h

Turning to `CCOC(=O)c1c(NC(=O)c2cccs2)sc2c1CCCC2`, the GI50 was > 79.6 µM (inactive) in the assay with MCF7; > 100 µM (inactive) in the assay with HCC 2998; 28.1 µM (inactive) in the assay on SF-268; > 100 µM (inactive) in the assay with MDA-N; > 68.1 µM (inactive) in the assay on ACHN; 42 µM (inactive) in the assay with SK-MEL-2. In addition, the GI50 with Hs-578T was 27.6 µM (inactive); in the assay on K562, > 100 µM (inactive); in the assay on NCI/ADR-RES it was > 100 µM (inactive); with HL-60, > 100 µM (inactive); with T47D, 30.6 µM (inactive); with MOLT-4 it was > 100 µM (inactive). Besides, the GI50 was 43.3 µM (inactive) in the assay on HOP-92; > 100 µM (inactive) with COLO 205; > 100 µM (inactive) with LOX IMVI; 35 µM (inactive) in the assay with OVCAR-5; 58.7 µM (inactive) with BT-549; 27.3 µM (inactive) with SF-295. The GI50 with RXF 393 was 12.7 µM (inactive).
Regarding `CC1(C)CN=C(Nc2ccc(F)c(F)c2)S1`, the GI50 in the assay on MCF7, in the assay on HCC 2998, in the assay with SF-268, in the assay with MDA-N, with ACHN and with SK-MEL-2 was > 100 µM (inactive) each time. The GI50 in the assay with Hs-578T, in the assay with K562, in the assay on NCI/ADR-RES, with HL-60, in the assay on T47D and in the assay on MOLT-4 was > 100 µM (inactive) each time. Further, the GI50 in the assay with HOP-92 is 31.4 µM (inactive); in the assay on COLO 205, > 100 µM (inactive); with LOX IMVI, > 100 µM (inactive); in the assay on OVCAR-5, > 100 µM (inactive); with BT-549, > 100 µM (inactive); in the assay with SF-295 it was > 100 µM (inactive). The GI50 in the assay with RXF 393 was > 100 µM (inactive).
Consider `CC(=O)NC1CCC(NC(=O)OC(C)(C)C)C(NC(=O)OC(C)(C)C)C1` (configuration not stated), for which the GI50 in the assay on MCF7, with HCC 2998, with SF-268, in the assay on MDA-N, in the assay on ACHN and with SK-MEL-2 was > 100 µM (inactive) in each case. Besides, the GI50 in the assay with Hs-578T, in the assay with K562, with NCI/ADR-RES, in the assay on HL-60, in the assay on T47D and in the assay on MOLT-4 was > 100 µM (inactive) throughout. For the same compound, the GI50 in the assay with HOP-92, with COLO 205, in the assay on LOX IMVI, in the assay on OVCAR-5, in the assay on BT-549 and in the assay on SF-295 was > 100 µM (inactive) each time. Also, in the assay on RXF 393, the GI50 is > 100 µM (inactive).
Take `Cn1c2c(c3ccccc31)CCN(CCCCN1CCc3c(n(C)c4ccccc34)C1=O)C2`: the GI50 with SF-268, with ACHN, in the assay with KM-20L2, in the assay on SK-MEL-2, in the assay with K562 and with HL-60 was > 100 µM (inactive) throughout. In addition, the GI50 in the assay with MOLT-4, in the assay with HOP-92, with COLO 205, in the assay with OVCAR-5, in the assay with SF-295 and with RXF 393 was > 100 µM (inactive) in each case.
Turning to `O=C1/C=C(/c2ccc(O)cc2)[C@@H](OC2OC(CO)C(O)C(O)C2O)Cc2ccc(O)cc2O1.O=C1/C=C(/c2ccc(O)cc2)[C@H](O)Cc2ccc(O[C@@H]3OC(CO)C(O)C(O)C3O)cc2O1` (some centres not stated), the GI50 with SF-268 is > 100 µM (inactive); in the assay with ACHN, > 100 µM (inactive); in the assay with KM-20L2, > 100 µM (inactive); in the assay on SK-MEL-2, > 100 µM (inactive); with HL-60 it was 4.91 µM (inactive); in the assay with COLO 205, > 100 µM (inactive). In addition, the GI50 in the assay on LOX IMVI, with OVCAR-5 and in the assay with SF-295 was > 100 µM (inactive) each time.
With `COC(=O)c1ccc(CCC2=CC(=O)C(Br)=CC2=O)cc1`, the GI50 in the assay with MCF7 is 16.5 µM (inactive); in the assay on HCC 2998, 15.7 µM (inactive); in the assay with SF-268 it was 19.8 µM (inactive); with MDA-N, 16 µM (inactive); with ACHN it was 12.6 µM (inactive); with SK-MEL-2, 17.1 µM (inactive). Also, the GI50 in the assay with Hs-578T is 20.4 µM (inactive); in the assay on K562, 2.21 µM (inactive); in the assay on NCI/ADR-RES it was 18.7 µM (inactive); in the assay on HL-60 it was 2 µM (inactive); in the assay with T47D it was 21.5 µM (inactive); in the assay with MOLT-4, 2.47 µM (inactive). The GI50 in the assay with HOP-92 is 5.14 µM (inactive); in the assay on COLO 205 it was 6.78 µM (inactive); in the assay on LOX IMVI, 17.5 µM (inactive); with OVCAR-5 it was 18.8 µM (inactive); in the assay with BT-549, 11.6 µM (inactive); in the assay on SF-295, 19.5 µM (inactive). For the same compound, the GI50 in the assay on RXF 393 is 18.3 µM (inactive).
For `O=C(OCc1ccc([N+](=O)[O-])cc1)N1c2ccccc2[C@@]23O[C@]24CCC[C@H]3C#C/C=C\C#C[C@H]14`, the GI50 with MCF7 is 8.18 µM (inactive); with HCC 2998, > 100 µM (inactive); in the assay on SF-268, 38.6 µM (inactive); with MDA-N it was > 100 µM (inactive); in the assay on ACHN, 78.9 µM (inactive); in the assay on SK-MEL-2 it was > 100 µM (inactive). The GI50 was 58.9 µM (inactive) with Hs-578T; 88.1 µM (inactive) with K562; 43.6 µM (inactive) in the assay with NCI/ADR-RES; 25 µM (inactive) in the assay on HL-60; > 100 µM (inactive) with T47D; 3.27 µM (inactive) in the assay on MOLT-4. Also, the GI50 was > 100 µM (inactive) in the assay on HOP-92; 65.6 µM (inactive) with COLO 205; 56.5 µM (inactive) with LOX IMVI; > 100 µM (inactive) with OVCAR-5; > 100 µM (inactive) in the assay with BT-549; > 100 µM (inactive) in the assay on SF-295. For the same compound, the GI50 with RXF 393 was > 100 µM (inactive).
Turning to `OC1[C@@H]2[C@@H](O)CCCN2C[C@@H](O)[C@H]1O` (some centres not stated), the GI50 with MCF7, in the assay on HCC 2998, in the assay on SF-268, in the assay on MDA-N, with ACHN and with SK-MEL-2 was > 100 µM (inactive) in each case. For the same compound, the GI50 in the assay with Hs-578T, in the assay with K562, in the assay with NCI/ADR-RES, with HL-60, in the assay on T47D and in the assay with MOLT-4 was > 100 µM (inactive) in each case. For the same compound, the GI50 in the assay with HOP-92, in the assay on COLO 205, in the assay on LOX IMVI, in the assay on OVCAR-5, in the assay on BT-549 and with SF-295 was > 100 µM (inactive) each time. Moreover, in the assay on RXF 393, the GI50 was > 100 µM (inactive).
`Oc1ccc(/C=C/c2ccc3cccc(O)c3n2)cc1O`: the GI50 in the assay on MCF7 was 2.42 µM (inactive); in the assay on HCC 2998, 10.8 µM (inactive); with SF-268 it was 6.5 µM (inactive); in the assay on MDA-N it was 5.41 µM (inactive); in the assay on ACHN it was 3.42 µM (inactive); with SK-MEL-2, 11.9 µM (inactive). Besides, the GI50 in the assay with Hs-578T is 36.1 µM (inactive); in the assay on K562, 3.69 µM (inactive); in the assay on NCI/ADR-RES, 0.493 µM (active); in the assay on HL-60, 1.96 µM (inactive); with T47D, 1.75 µM (inactive); in the assay on MOLT-4, 0.973 µM (active). The GI50 in the assay with HOP-92 is 15.9 µM (inactive); in the assay on COLO 205, 14.3 µM (inactive); with LOX IMVI, 4.48 µM (inactive); in the assay on OVCAR-5, 16.1 µM (inactive); with BT-549, 1.61 µM (inactive); in the assay with SF-295, 8.17 µM (inactive). The GI50 in the assay with RXF 393 was 3.24 µM (inactive).
For the compound `O=c1c2cc(I)ccc2nc(Sc2ncccc2[N+](=O)[O-])n1Cc1ccccc1`, the GI50 was 18.3 µM (inactive) in the assay with MCF7; 26.7 µM (inactive) with HCC 2998; 22.1 µM (inactive) in the assay with SF-268; 20.4 µM (inactive) in the assay with MDA-N; 39.1 µM (inactive) with ACHN; 7.38 µM (inactive) in the assay on SK-MEL-2. Also, the GI50 with Hs-578T was 16.7 µM (inactive); in the assay on K562 it was 38.5 µM (inactive); in the assay on NCI/ADR-RES, 17.2 µM (inactive); in the assay with HL-60, 0.122 µM (active); with T47D it was 26.3 µM (inactive); in the assay on MOLT-4, 23.2 µM (inactive). Also, the GI50 in the assay on HOP-92 is 5.33 µM (inactive); in the assay with COLO 205 it was 27.5 µM (inactive); with LOX IMVI, 34.3 µM (inactive); in the assay with OVCAR-5, > 100 µM (inactive); in the assay on BT-549, 11.6 µM (inactive); with SF-295, 60 µM (inactive). The GI50 in the assay on RXF 393 is 13.4 µM (inactive).
For the compound `[N-]=[N+]=Nc1c(C=O)c(=O)n(-c2ccccc2)c2ccccc12`, the GI50 was 27 µM (inactive) in the assay with MCF7; 19.1 µM (inactive) in the assay with HCC 2998; 47.8 µM (inactive) in the assay on SF-268; 37.8 µM (inactive) in the assay on MDA-N; 19 µM (inactive) with ACHN; 29.2 µM (inactive) with SK-MEL-2. The GI50 in the assay with Hs-578T is 25.1 µM (inactive); with K562, 3.89 µM (inactive); with NCI/ADR-RES it was 23.7 µM (inactive); in the assay with HL-60, 52.4 µM (inactive); with T47D, 13.9 µM (inactive); in the assay with MOLT-4 it was 2.63 µM (inactive). Besides, the GI50 in the assay on HOP-92 was 13.4 µM (inactive); with COLO 205, 13.5 µM (inactive); in the assay with LOX IMVI, 14.8 µM (inactive); in the assay with OVCAR-5 it was 55.8 µM (inactive); in the assay with BT-549 it was 31.8 µM (inactive); in the assay on SF-295 it was 75.5 µM (inactive). The GI50 in the assay with RXF 393 is 12.1 µM (inactive).

One may read the GI50 as the concentration that inhibits growth by half.
